US20250041266A1, “S1P MODULATOR IMMEDIATE RELEASE DOSAGE REGIMEN” (Novartis AG, priority 2014, published 2025)

Experiments:
[1] = target: T1, cloned human S1P5 (Homo sapiens, UniProt Q9H228); experiment: In-vitro affinity, EC50 for cloned human S1P5; type: biochemical
T1 construct: expressed in transfected cells

[2] = target: T2, cloned human S1P1 (Homo sapiens, UniProt P21453); experiment: In-vitro affinity, EC50 for cloned human S1P1; type: biochemical
T2 construct: expressed in transfected cells
T2 sequence (P21453 whole entry): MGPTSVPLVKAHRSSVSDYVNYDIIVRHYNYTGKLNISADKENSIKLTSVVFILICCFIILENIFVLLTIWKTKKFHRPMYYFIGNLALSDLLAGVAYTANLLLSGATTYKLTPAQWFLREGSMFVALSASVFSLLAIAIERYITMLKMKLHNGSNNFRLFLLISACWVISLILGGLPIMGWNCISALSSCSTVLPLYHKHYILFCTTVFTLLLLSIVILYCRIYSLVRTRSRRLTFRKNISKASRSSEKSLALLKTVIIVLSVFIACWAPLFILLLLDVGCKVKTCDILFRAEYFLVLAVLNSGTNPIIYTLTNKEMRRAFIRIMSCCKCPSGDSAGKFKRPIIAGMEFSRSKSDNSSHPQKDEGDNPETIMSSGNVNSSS

[3] = Clinical study in SPMS: cardiac monitoring at treatment initiation; type: in vivo, patients with Secondary Progressive Multiple Sclerosis
Source text: This is a randomized, multicenter, double-blind, placebo-controlled parallel-group study in approximately 1530 patients with SPMS. Patients are randomized (2:1) to receive either BAF312 or placebo.
The Double-blind treatment epoch starts at randomization. Patients are randomly assigned to either siponimod or placebo. Randomized patients begin with a six-day dose titration Patients are monitored during the dose titration period. During the dose titration, all patients are expected to complete a study visit on the first day of dosing and on day 7. Patients have a study visit on Day 28 and then continue on a visit schedule every 3 months. The treatment duration for individual patients is variable (likely ranging from approximately 23 to 42 months) based on when the study-stop criteria are met.
All patients start the treatment with a 5-day dose titration pack (0.25 mg, 0.25 mg, 0.5 mg, 0.75 mg, 1.25 mg) continuing to a 2 mg siponimod/placebo dose.
Sitting heart rate and blood pressure should be measured in triplicate before the first dose of BAF312, then hourly for 6 hours thereafter (by the Independent First Dose Administrator). When obtaining the pre-dose heart rate before the first dose, the patient should be allowed to sit and rest for 5 minutes before taking the sitting heart rate. Triplicate repeat sitting heart rate and blood pressure will then be made at 1-2 minute intervals. The sitting heart rate and blood pressure measurements should be taken as a baseline reading for both heart rate and blood pressure (before the first dose of BAF312). For comparison to the post-dose heart rate values, the lowest pre-dose value of heart rate should be used. Patients should receive the first dose of BAF312 before 12:00 PM (noon) in the outpatient setting. • 1. In house (clinical/office/hospital) cardiac monitoring, of at least 6 hours, on Day 1 (treatment initiation): • Heart rate and blood pressure will be monitored in triplicate every hour for 6 hours. • 12-lead ECG will be done before dosing, then at 3 hours post-dose and 6 hours post dose • Patients will only be discharged if they meet the following discharge criteria: • Heart rate must be at least 50 bpm or maximally 10 bpm lower than the baseline value • Heart rate must not be the lowest value measured during the observation period • Patients must have no symptoms related to decreased heart rate • ECG at 6 hours should not show any new significant treatment-emergent ECG abnormalities, other than sinus bradycardia, not observed at the patient's pre-dose ECG. • 2. If the discharge criteria are not met at the 6-hour time point, monitoring beyond 6 hours will be performed until the discharge criteria are met. • 3. Patients experiencing a clinically relevant treatment-related symptomatic event (e.g. chest pain, dizziness, palpitations, syncope, nausea and vomiting, etc) associated with reduction of the heart rate together with ECG changes at any time during the 6 hour monitoring period should be discontinued from treatment. • 4. Patients experiencing a symptomatic event, (e.g. chest pain, dizziness, palpitations, syncope, nausea and vomiting) not associated with reduction of the heart rate and without ECG changes, which occur at any time during the 6-hour monitoring period may be discharged, provided they meet the discharge criteria, but must return on Day 2 for the second dose and will be re-monitored as on Day 1. • 5. Mobile heart rate monitoring with telemetry, or a device with similar (or better) registration capability, will be used for continuous registration of heart rate and cardiac events, minimally 6 h post-dose, for Expanded Cardiac Monitoring patients during their outpatient phase of the BAF312 titration period. If MCT is not possible, Patient will be required to wear a Holter on Screening, Day 1 and Day 4 for 24 hours and for 6 hours on Day 7. The patients who will wear a Holter will need make the study visits to have the Holter machine attached. • 6. On Day 4: • a. […]

[4] = test system: PLP139-151 induced experimental autoimmune encephalomyelitis (EAE) in SJL/J mice; experiment: Relapse and progression in PLP139-151 induced EAE; type: in vivo; settings: 3 mg/kg p.o. daily, started three days after first clinical symptoms; FIG. 2
Experimental: Female SJL/J mice were immunized with 50 μg PLP139-151 in CFA, followed by one injection of 200 ng Pertussis toxin, i.p.. Three days after the first clinical symptoms, the mice were randomized to either vehicle or BAF312 and treated daily with 3 mg/kg BAF312 p.o..

[5] = administration of 10 mg of siponimod; cited from earlier work
[6] = target: S1P1 (Homo sapiens, UniProt P21453); experiment: EC50 for S1P1; type: biochemical; settings: as quoted in Example 3.1
S1P1, sequence (P21453 whole entry, species assumed): as the sequence (P21453 whole entry) above

[7] = target: S1P5 (Homo sapiens, UniProt Q9H228); experiment: EC50 for S1P5; type: biochemical; settings: as quoted in Example 3.1
S1P5, sequence (Q9H228 whole entry, species assumed): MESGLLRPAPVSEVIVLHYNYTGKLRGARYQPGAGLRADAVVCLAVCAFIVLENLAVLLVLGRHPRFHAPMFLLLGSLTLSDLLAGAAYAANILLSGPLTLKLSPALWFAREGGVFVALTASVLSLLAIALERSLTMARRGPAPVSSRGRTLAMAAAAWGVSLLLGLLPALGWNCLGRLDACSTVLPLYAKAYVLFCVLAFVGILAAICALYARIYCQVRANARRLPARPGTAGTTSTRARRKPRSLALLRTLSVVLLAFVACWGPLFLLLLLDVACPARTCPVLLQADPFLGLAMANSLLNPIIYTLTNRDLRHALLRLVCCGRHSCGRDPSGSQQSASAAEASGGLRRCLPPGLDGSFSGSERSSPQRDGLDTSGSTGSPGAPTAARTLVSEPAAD

[8] = blinded data (siponimod or placebo)
[9] = blinded data (siponimod or placebo), AE data for 775 patients

T1 sequence (Q9H228 whole entry): as the sequence (Q9H228 whole entry, species assumed) above

Structure (SMILES)	EC50 [1] [nM]	EC50 [2] [nM]	12-lead ECG: cases of 2nd degree AV block ([3]; blinded data (siponimod or placebo 2:1), 5-day titration then 2 mg, post-dose ECG, 691 patients)	cases of 2.1 or Mobitz II AV blocks or high degree AV blocks [3, 8]	cases of symptomatic 2nd degree AV blocks [3, 8]	symptomatic bradyarrhythmia events [3, 8]	Holter: patients with AV block 2nd degree Mobitz I night-time episode <3 sec ([3]; blinded data (siponimod or placebo), Day 1, expanded monitoring group, 651 patients) [patient]	MCT: patients with AV block 2nd degree Mobitz I ([3]; blinded data (siponimod or placebo), on Days 3 and 4, MCT or Holter post-dose, 651 patients) [patients]	AE AV block 2nd degree [3, 9]	AE bradycardia [3, 9]	AE sinus bradycardia [3, 9]	Cardiac disorders AEs reported [3, 9]	SAE of asymptomatic 2nd degree AV block Mobitz I ([3]; blinded data, patient with pre-existing AV block 1st degree receiving carbamazepine, SAE data for 862 patients) [SAE]	occurrence of relapses (relapse onset) [4]	occurrence of subsequent progression (EAE score and body weight) [4]	decrease in heart rate [5]	EC50 [6] [nM]	EC50 [7] [nM]
CCc1cc(/C(C)=N/OCc2ccc(C3CCCCC3)c(I)c2)ccc1CN1CC(C(=O)O)C1 [compound A, (E)-1-(4-(1-(((4-cyclohexyl-3-iodobenzyl)oxy)imino)ethyl)-2-ethylbenzyl)azetidine-3-carboxylic acid]	1.35	2.2																
CCc1cc(/C(C)=N/OCc2ccc(C3CCCCC3)c(C(F)(F)F)c2)ccc1CN1CC(C(=O)O)C1 [siponimod, 1-{4-[1-((E)-4-cyclohexyl-3-trifluoromethyl-benzyloxyimino)-ethyl]-2-ethyl-benzyl}-azetidine-3-carboxylic acid]	0.79	0.9	no cases	No cases	No cases	No symptomatic bradyarrhythmia events	1	2	2 (0.3%) patients (%)	17 (2.2%) patients (%)	8 (1.0%) patients (%)	54 (7%) patients (%)	1	strongly inhibited	strongly inhibited	approximately 10 beats/min	0.4	1
